In ChEMBL document CHEMBL3885881, “DrugMatrix”:

Species on record: Rattus norvegicus
Assay: DrugMatrix - Regimen: Daily Repeat
Assay type: toxicity, organism-based, Sprague-Dawley
Set-up: regimen Daily Repeat, gender Male, age 6-8 weeks
Settings: in vivo, po, route oral GAVAGE, […]; for ABSOLUTE BASOPHIL / ABSOLUTE EOSINOPHIL / ABSOLUTE LYMPHOCYTE / ABSOLUTE MONOCYTE / ABSOLUTE SEGMENTED NEUTROPHIL / BASOPHIL / EOSINOPHIL / ERYTHROCYTE COUNT / HEMATOCRIT / HEMOGLOBIN / LEUKOCYTE COUNT / LYMPHOCYTE / MEAN CORPUSCULAR HEMOGLOBIN / MEAN CORPUSCULAR HEMOGLOBIN CONCENTRATION / MEAN CORPUSCULAR VOLUME / MONOCYTE / NEUTROPHIL / NUCLEATED RED BLOOD CELLS / PLATELET COUNT: tissue Blood; for ALANINE AMINOTRANSFERASE / ALBUMIN / ALKALINE PHOSPHATASE / ASPARTATE AMINOTRANSFERASE / BLOOD UREA NITROGEN / CARBON DIOXIDE / CHLORIDE / CHOLESTEROL / CREATINE PHOSPHOKINASE / CREATININE / GLUCOSE / LACTATE DEHYDROGENASE / LIPASE / PHOSPHORUS / POTASSIUM / SODIUM / TOTAL BILIRUBIN / TOTAL PROTEIN / URIC ACID: tissue Plasma
[1] = 0 mg/kg, 72 h, dose level Control, time 3 day
[2] = 0 mg/kg, 120 h, dose level Control, time 5 day
[3] = 0.05 mg/kg, 72 h, dose level Low, time 3 day

## COCc1c(C(C)C)nc(C(C)C)c(/C=C/[C@@H](O)C[C@@H](O)CC(=O)O)c1-c1ccc(F)cc1 [CERIVASTATIN]
[1]
  ABSOLUTE BASOPHIL: 0 CELLS/uL
  ABSOLUTE EOSINOPHIL: 0 CELLS/uL
  ABSOLUTE LYMPHOCYTE: 11091.17 CELLS/uL
  ABSOLUTE MONOCYTE: 172.17 CELLS/uL
  ABSOLUTE SEGMENTED NEUTROPHIL: 1186.67 CELLS/uL
  BASOPHIL: 0%
  EOSINOPHIL: 0%
  ERYTHROCYTE COUNT: 5.87 x10E6/uL
  HEMATOCRIT: 36.87%
  HEMOGLOBIN: 14.03 G/DL
  LEUKOCYTE COUNT: 12.45 x10E3/uL
  LYMPHOCYTE: 88.67%
  MEAN CORPUSCULAR HEMOGLOBIN: 23.93 pg
  MEAN CORPUSCULAR HEMOGLOBIN CONCENTRATION: 38.1 G/DL
  MEAN CORPUSCULAR VOLUME: 62.73 fL
  MONOCYTE: 1.5%
  NEUTROPHIL: 9.83%
  NUCLEATED RED BLOOD CELLS: 0 /100WBC
  PLATELET COUNT: 1150.33 x10E3/uL
  ALANINE AMINOTRANSFERASE: 67.17 u/L
  ALBUMIN: 4.03 G/DL
  ALKALINE PHOSPHATASE: 462.5 u/L
  ASPARTATE AMINOTRANSFERASE: 88 u/L
  BLOOD UREA NITROGEN: 13.17 mg/dL
  CARBON DIOXIDE: 29.33 mmol/L
  CHLORIDE: 101 MEQ/L
  CHOLESTEROL: 69.17 mg/dL
  CREATINE PHOSPHOKINASE: 292.5 u/L
  CREATININE: 0.17 mg/dL
  GLUCOSE: 167.5 mg/dL
  LACTATE DEHYDROGENASE: 198.5 u/L
  LIPASE: 10.67 u/L
  PHOSPHORUS: 11.73 mg/dL
  POTASSIUM: 5.91 MEQ/L
  SODIUM: 143.3 MEQ/L
  TOTAL BILIRUBIN: 0.18 mg/dL
  TOTAL PROTEIN: 5.7 G/DL
  URIC ACID: 1.3 mg/dL
[2]
  ABSOLUTE BASOPHIL: 0 CELLS/uL
  ABSOLUTE EOSINOPHIL: 64.33 CELLS/uL
  ABSOLUTE LYMPHOCYTE: 12494.67 CELLS/uL
  ABSOLUTE MONOCYTE: 117 CELLS/uL
  ABSOLUTE SEGMENTED NEUTROPHIL: 1340.67 CELLS/uL
  BASOPHIL: 0%
  EOSINOPHIL: 0.33%
  ERYTHROCYTE COUNT: 5.82 x10E6/uL
  HEMATOCRIT: 36.97%
  HEMOGLOBIN: 14.18 G/DL
  LEUKOCYTE COUNT: 14.02 x10E3/uL
  LYMPHOCYTE: 89%
  MEAN CORPUSCULAR HEMOGLOBIN: 24.42 pg
  MEAN CORPUSCULAR HEMOGLOBIN CONCENTRATION: 38.4 G/DL
  MEAN CORPUSCULAR VOLUME: 63.52 fL
  MONOCYTE: 0.83%
  NEUTROPHIL: 9.83%
  NUCLEATED RED BLOOD CELLS: 0 /100WBC
  PLATELET COUNT: 1097.83 x10E3/uL
  ALANINE AMINOTRANSFERASE: 58.83 u/L
  ALBUMIN: 3.92 G/DL
  ALKALINE PHOSPHATASE: 414.17 u/L
  ASPARTATE AMINOTRANSFERASE: 89.17 u/L
  BLOOD UREA NITROGEN: 16.83 mg/dL
  CARBON DIOXIDE: 29.17 mmol/L
  CHLORIDE: 100.33 MEQ/L
  CHOLESTEROL: 54.5 mg/dL
  CREATINE PHOSPHOKINASE: 386.17 u/L
  CREATININE: 0.23 mg/dL
  GLUCOSE: 184.17 mg/dL
  LACTATE DEHYDROGENASE: 229.17 u/L
  LIPASE: 10.83 u/L
  PHOSPHORUS: 10.88 mg/dL
  POTASSIUM: 5.97 MEQ/L
  SODIUM: 142.2 MEQ/L
  TOTAL BILIRUBIN: 0.12 mg/dL
  TOTAL PROTEIN: 5.63 G/DL
  URIC ACID: 1.55 mg/dL
[3]
  ABSOLUTE BASOPHIL: 0 CELLS/uL
  ABSOLUTE EOSINOPHIL: 0 CELLS/uL
  ABSOLUTE LYMPHOCYTE: 11310.33 CELLS/uL
  ABSOLUTE MONOCYTE: 175.33 CELLS/uL
  ABSOLUTE SEGMENTED NEUTROPHIL: 1347.67 CELLS/uL
  BASOPHIL: 0%
  EOSINOPHIL: 0%
  ERYTHROCYTE COUNT: 5.68 x10E6/uL
  HEMATOCRIT: 35.3%
  HEMOGLOBIN: 13.6 G/DL
  LEUKOCYTE COUNT: 12.83 x10E3/uL
  LYMPHOCYTE: 88.33%
  MEAN CORPUSCULAR HEMOGLOBIN: 23.97 pg
  MEAN CORPUSCULAR HEMOGLOBIN CONCENTRATION: 38.53 G/DL
  MEAN CORPUSCULAR VOLUME: 62.17 fL
  MONOCYTE: 1.33%
  NEUTROPHIL: 10.33%
  NUCLEATED RED BLOOD CELLS: 0 /100WBC
  PLATELET COUNT: 1230 x10E3/uL
  ALANINE AMINOTRANSFERASE: 65 u/L
  ALBUMIN: 4.07 G/DL
  ALKALINE PHOSPHATASE: 429 u/L
  ASPARTATE AMINOTRANSFERASE: 96.67 u/L
  BLOOD UREA NITROGEN: 15.67 mg/dL
  CARBON DIOXIDE: 25 mmol/L
  CHLORIDE: 103 MEQ/L
  CHOLESTEROL: 64 mg/dL
  CREATINE PHOSPHOKINASE: 269.33 u/L
  CREATININE: 0.13 mg/dL
  GLUCOSE: 169.67 mg/dL
  LACTATE DEHYDROGENASE: 270.33 u/L
  LIPASE: 10 u/L
  PHOSPHORUS: 12.17 mg/dL
  POTASSIUM: 6.2 MEQ/L
  SODIUM: 144.27 MEQ/L
  TOTAL BILIRUBIN: 0.13 mg/dL
  TOTAL PROTEIN: 5.63 G/DL
  URIC ACID: 1.9 mg/dL
